Laboratory results from US9957265B2, “N-(2-cyano heterocyclyl) pyrazolo pyridones as janus kinase inhibitors” (Merck Sharp & Dohme Corp., priority 2013, dated 2018).

Legend:
JAK1 = JAK1 (Homo sapiens (Human), UniProt P23458); experiment: Jak Biochemical HTRF Assay (JAK1); settings: recombinant GST-tagged catalytic domain, [ATP] 31.8 μM, unit not given (compound concentrations tested given in nM)
Excerpt: Jak Biochemical HTRF Assay Protocol
Subsequent reagent additions employed an Agilent Bravo.

JAK2 = JAK2 (Homo sapiens (Human), UniProt O60674); experiment: Jak Biochemical HTRF Assay (JAK2); settings: JAK2 IC50, recombinant GST-tagged catalytic domain, [ATP] 8.5 μM, unit not given (compound concentrations tested given in nM)
JAK2, sequence (O60674 849-1124): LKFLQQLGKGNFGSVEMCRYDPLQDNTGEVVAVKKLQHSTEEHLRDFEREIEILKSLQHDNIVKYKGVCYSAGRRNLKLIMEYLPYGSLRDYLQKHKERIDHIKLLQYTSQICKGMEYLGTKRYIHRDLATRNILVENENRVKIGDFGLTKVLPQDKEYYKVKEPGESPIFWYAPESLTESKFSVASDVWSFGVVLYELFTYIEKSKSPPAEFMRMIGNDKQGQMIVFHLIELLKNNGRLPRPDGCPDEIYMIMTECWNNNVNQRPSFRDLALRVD

JAK1, sequence (P23458 875-1153): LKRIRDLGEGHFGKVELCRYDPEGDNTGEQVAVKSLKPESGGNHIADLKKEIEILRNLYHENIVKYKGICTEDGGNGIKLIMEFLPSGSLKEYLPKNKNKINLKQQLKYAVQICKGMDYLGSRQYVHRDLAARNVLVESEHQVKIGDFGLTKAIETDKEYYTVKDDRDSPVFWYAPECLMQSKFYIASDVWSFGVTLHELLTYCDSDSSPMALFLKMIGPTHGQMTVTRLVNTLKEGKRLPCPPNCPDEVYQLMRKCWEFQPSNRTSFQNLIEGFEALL

C[S+]([O-])c1cc(Nc2nn([C@H]3COCC[C@@H]3C#N)c3cc[nH]c(=O)c23)ccc1Cl (mixture of isomers) [Example 3-4, (3R,4S)-3-(3-{[4-chloro-3-((S and R)methylsulfinyl)phenyl]amino}-4-oxo-4,5-dihydro-1H-pyrazolo[4,3-c]pyridin-1-yl)tetrahydro-2H-pyran-4-carbonitrile]
IC50 (JAK1): 1.75 nM
IC50 (JAK2): 14.6 nM

N#C[C@H]1CCOC[C@@H]1n1nc(Nc2ccc(C(N)C(F)(F)F)cc2)c2c(=O)[nH]ccc21 (single isomer, unassigned) [Example 1-8, (3R,4S)-3-(3-((4-((R or S)-1-amino-2,2,2-trifluoroethyl)phenyl)amino)-4-oxo-4,5-dihydro-1H-pyrazolo[4,3-c]pyridin-1-yl)tetrahydro-2H-pyran-4-carbonitrile]
IC50 (JAK1): 0.06 nM
IC50 (JAK2): 0.22 nM

N#C[C@H]1CCOC[C@@H]1n1nc(Nc2ccc(C(N)C(F)(F)F)cc2)c2c(=O)[nH]ccc21 (single isomer, unassigned) [Example 1-9, (3R,4S)-3-(3-((4-((S or R)-1-amino-2,2,2-trifluoroethyl)phenyl)amino)-4-oxo-4,5-dihydro-1H-pyrazolo[4,3-c]pyridin-1-yl)tetrahydro-2H-pyran-4-carbonitrile]
IC50 (JAK1): 0.09 nM
IC50 (JAK2): 0.29 nM

CN(C)C(c1ccc(Nc2nn([C@H]3COCC[C@@H]3C#N)c3cc[nH]c(=O)c23)cc1)C(F)(F)F (single isomer, unassigned) [Example 1-18, (3R,4S)-3-[3-({4-[(1R, or 1S)-1-(dimethylamino)-2,2,2-trifluoroethyl]phenyl}amino)-4-oxo-4,5-dihydro-1H-pyrazolo[4,3-c]pyridin-1-yl]tetrahydro-2H-pyran-4-carbonitrile]
IC50 (JAK1): 0.07 nM
IC50 (JAK2): 0.13 nM

CN(C)C(c1ccc(Nc2nn([C@H]3COCC[C@@H]3C#N)c3cc[nH]c(=O)c23)cc1)C(F)(F)F (single isomer, unassigned) [Example 1-19, (3R,4S)-3-[3-({4-[(1S or 1R)-1-(dimethylamino)-2,2,2-trifluoroethyl]phenyl}amino)-4-oxo-4,5-dihydro-1H-pyrazolo[4,3-c]pyridin-1-yl]tetrahydro-2H-pyran-4-carbonitrile]
IC50 (JAK1): 0.05 nM
IC50 (JAK2): 0.08 nM

CC(C)(C)S(=O)(=O)c1ccc(Nc2nn([C@H]3COCCC[C@@H]3C#N)c3cc[nH]c(=O)c23)cc1 (single isomer, unassigned) [Example 1-22, (3R,4S or 3S,4R)-3-(3-{[4-(tert-butylsulfonyl)phenyl]amino}-4-oxo-4,5-dihydro-1H-pyrazolo[4,3-c]pyridin-1-yl)oxepane-4-carbonitrile]
IC50 (JAK1): 17.3 nM
IC50 (JAK2): 21.2 nM

CC(C)(C)S(=O)(=O)c1ccc(Nc2nn([C@@H]3COCCC[C@H]3C#N)c3cc[nH]c(=O)c23)cc1 (single isomer, unassigned) [Example 1-23, (3S,4R or 3R,4S)-3-(3-{[4-(tert-butylsulfonyl)phenyl]amino}-4-oxo-4,5-dihydro-1H-pyrazolo[4,3-c]pyridin-1-yl)oxepane-4-carbonitrile]
IC50 (JAK1): 0.25 nM
IC50 (JAK2): 0.69 nM

CC(C)(C)S(=O)(=O)c1ccc(Nc2nn(C3COCCC[C@H]3C#N)c3cc[nH]c(=O)c23)cc1 (single isomer, unassigned) [Example 1-24, (3R,4R or 3S,4S)-3-(3-{[4-(tert-butylsulfonyl)phenyl]amino}-4-oxo-4,5-dihydro-1H-pyrazolo[4,3-c]pyridin-1-yl)oxepane-4-carbonitrile]
IC50 (JAK1): 12.4 nM
IC50 (JAK2): 14.7 nM

CC(C)(C)S(=O)(=O)c1ccc(Nc2nn([C@H]3CCOCC[C@@H]3C#N)c3cc[nH]c(=O)c23)cc1 (single isomer, unassigned) [Example 1-26, (4S,5S or 4R,5R)-5-(3-{[4-(tert-butylsulfonyl)phenyl]amino}-4-oxo-4,5-dihydro-1H-pyrazolo[4,3-c]pyridin-1-yl)oxepane-4-carbonitrile]
IC50 (JAK1): 0.71 nM

CC(C)(C)S(=O)(=O)c1ccc(Nc2nn([C@@H]3CCOCC[C@H]3C#N)c3cc[nH]c(=O)c23)cc1 (single isomer, unassigned) [Example 1-27, (4R,5R or 4S,5S)-5-(3-{[4-(tert-butylsulfonyl)phenyl]amino}-4-oxo-4,5-dihydro-1H-pyrazolo[4,3-c]pyridin-1-yl)oxepane-4-carbonitrile]
IC50 (JAK1): 22.4 nM

CC(C)(C)S(=O)(=O)c1ccc(Nc2nn([C@H]3CCOCC[C@H]3C#N)c3cc[nH]c(=O)c23)cc1 (single isomer, unassigned) [Example 1-28, (4R,5S or 4S,5R)-5-(3-{[4-(tert-butylsulfonyl)phenyl]amino}-4-oxo-4,5-dihydro-1H-pyrazolo[4,3-c]pyridin-1-yl)oxepane-4-carbonitrile]
IC50 (JAK1): 5.34 nM

CC(C)(C)S(=O)(=O)c1ccc(Nc2nn([C@@H]3CCOCC[C@@H]3C#N)c3cc[nH]c(=O)c23)cc1 (single isomer, unassigned) [Example 1-29, (4S,5R or 4R,5S)-5-(3-{[4-(tert-butylsulfonyl)phenyl]amino}-4-oxo-4,5-dihydro-1H-pyrazolo[4,3-c]pyridin-1-yl)oxepane-4-carbonitrile]
IC50 (JAK1): 4.38 nM

CC(C)(C)NC(c1ccc(Nc2nn([C@H]3COCC[C@@H]3C#N)c3cc[nH]c(=O)c23)cc1)C(F)(F)F (single isomer, unassigned) [Example 1-50, (3R,4S)-3-[3-({4-[(1R or 1S)-1-(tert-butylamino)-2,2,2-trifluoroethyl]phenyl}amino)-4-oxo-4,5-dihydro-1H-pyrazolo[4,3-c]pyridine-1-yl]tetrahydro-2H-pyran-4-carbonitrile]
IC50 (JAK1): 0.08 nM

CC(C)(C)NC(c1ccc(Nc2nn([C@H]3COCC[C@@H]3C#N)c3cc[nH]c(=O)c23)cc1)C(F)(F)F (single isomer, unassigned) [Example 1-51, (3R,4S)-3-[3-[3-({4-[(1S or 1R)-1-(tert-butylamino)-2,2,2-trifluoroethyl]phenyl}amino)-4-oxo-4,5-dihydro-1H-pyrazolo[4,3-c]pyridin-1-yl]tetrahydro-2H-pyran-4-carbonitrile]
IC50 (JAK1): 0.08 nM

N#C[C@H]1CCOC[C@@H]1n1nc(Nc2ccc(C(N3CCC3)C(F)(F)F)cc2)c2c(=O)[nH]ccc21 (single isomer, unassigned) [Example 1-56, (3R,4S)-3-[3-({4-[(1R or 1S)-1-azetidin-1-yl-2,2,2-trifluoroethyl]phenyl}amino)-4-oxo-4,5-dihydro-1H-pyrazolo[4,3-c]pyridin-1-yl]tetrahydro-2H-pyran-4-carbonitrile]
IC50 (JAK1): 0.06 nM

N#C[C@H]1CCOC[C@@H]1n1nc(Nc2ccc(C(N3CCC3)C(F)(F)F)cc2)c2c(=O)[nH]ccc21 (single isomer, unassigned) [Example 1-57, (3R,4S)-3-[3-({4-[(1S or 1R)-1-azetidin-1-yl-2,2,2-trifluoroethyl]phenyl}amino)-4-oxo-4,5-dihydro-1H-pyrazolo[4,3-c]pyridin-1-yl]tetrahydro-2H-pyran-4-carbonitrile]
IC50 (JAK1): 0.09 nM

N#C[C@H]1CCOCC1n1nc(Nc2ccc(C3(C(F)(F)F)CCNC3)cc2)c2c(=O)[nH]ccc21 (single isomer, unassigned) [Example 1-98, (3R,4S)-3-(4-oxo-3-((4-((S or R)-3-(trifluoromethyl)pyrrolidin-3-yl)phenyl)amino)-4,5-dihydro-1H-pyrazolo[4,3-c]pyridin-1-yl)tetrahydro-2H-pyran-4-carbonitrile]
IC50 (JAK1): 0.06 nM

N#C[C@H]1CCOCC1n1nc(Nc2ccc(C3(C(F)(F)F)CCNC3)cc2)c2c(=O)[nH]ccc21 (single isomer, unassigned) [Example 1-99, (3R,4S)-3-(4-oxo-3-((4-((S or R)-3-(trifluoromethyl)pyrrolidin-3-yl)phenyl)amino)-4,5-dihydro-1H-pyrazolo[4,3-c]pyridin-1-yl)tetrahydro-2H-pyran-4-carbonitrile]
IC50 (JAK1): 0.07 nM

CC1(C)CC2(c3ccc(Nc4nn([C@H]5COCC[C@@H]5C#N)c5cc[nH]c(=O)c45)cc3)CCC1C(=O)O2 (stereo partly drawn) [Example 1-20, (3R,4S)-3-(3-{[4-(5,5-dimethyl-3-oxo-2-oxabicyclo[2.2.2]oct-1-yl)phenyl]amino}-4-oxo-4,5-dihydro-1H-pyrazolo[4,3-c]pyridin-1-yl)tetrahydro-2H-pyran-4-carbonitrile]
IC50 (JAK1): 0.07 nM

CC1(C)CC2(c3ccc(Nc4nn([C@H]5COCC[C@@H]5C#N)c5cc[nH]c(=O)c45)cc3)CCC1C(=O)O2 (stereo partly drawn) [Example 1-21, (3R,4S)-3-(3-{[4-(5,5-dimethyl-3-oxo-2-oxabicyclo[2.2.2]oct-1-yl)phenyl]amino}-4-oxo-4,5-dihydro-1H-pyrazolo[4,3-c]pyridin-1-yl)tetrahydro-2H-pyran-4-carbonitrile]
IC50 (JAK1): 0.08 nM

CC(C)(N)c1ccc(Nc2nn([C@H]3COCC[C@@H]3C#N)c3cc[nH]c(=O)c23)cc1 [Example 1-60, (3R,4S)-3-(3-{[4-(1-amino-1-methylethyl)phenyl]amino}-4-oxo-4,5-dihydro-1H-pyrazolo[4,3-c]pyridin-1-yl)tetrahydro-2H-pyran-4-carbonitrile]
IC50 (JAK1): 0.21 nM

CC(C)C(C)(C)S(=O)(=O)c1ccc(Nc2nn([C@H]3COCC[C@@H]3C#N)c3cc[nH]c(=O)c23)cc1 [Example 1-66, (3R,4S)-3-[4-oxo-3-({4-[(1,1,2-trimethylpropyl)sulfonyl]phenyl}amino)-4,5-dihydro-1H-pyrazolo[4,3-c]pyridin-1-yl]tetrahydro-2H-pyran-4-carbonitrile]
IC50 (JAK1): 0.07 nM

CC1CN(S(=O)(=O)c2ccc(Nc3nn([C@H]4COCC[C@@H]4C#N)c4cc[nH]c(=O)c34)cc2)C1 [Example 1-70, (3R,4S)-3-[3-({4-[(3-methylazetidin-1-yl)sulfonyl]phenyl}amino)-4-oxo-4,5-dihydro-1H-pyrazolo[4,3-c]pyridin-1-yl]tetrahydro-2H-pyran-4-carbonitrile]
IC50 (JAK1): 0.15 nM
